The values below come from US12268781B2, “Sustained-release pharmaceutical compositions comprising a therapeutic agent for treating dementia and uses thereof” (priority 2018, dated 2025).

Where a name gives a salt, the structure may show the parent alone.

A short description of data set [1]: In vitro release, human plasma system (dialysis bag in PBS). The following applies: 37 °C, within 4 hours. In kind it is in vitro ADME. The method, then: (§1) Two in vitro release systems were used in this study, the first system was the plasma free environment and the second system was the human plasma environment. To set up the first in vitro release system, 1.0 mL of liposomal rivastigmine formulation prepared according to Example 1 and 1.0 mL of free rivastigmine tartrate were placed in separate dialysis bags (Spectra/Pro*6 dialysis membrane, MWCO 50 kDa, Spectrum Labs) and both ends of the dialysis bags were sealed. To set up the second in vitro release system, 1.0 mL of liposomal rivastigmine formulation prepared according to Example 1 and 1.0 mL of free rivastigmine tartrate were placed in separate dialysis bags, each containing 1 mL of human plasma (Valley Biomedical, Inc.) and both ends of the dialysis bags were sealed. Each dialysis bag was immersed in 25 mL PBS at pH 7.4 in a 50-mL centrifuge tube and incubated in a water bath at 37±1° C. for 24 hours. At designated time points after incubation (1, 2, 4, 6 and 24 hours), 0.5 mL aliquot from the 25-mL PBS was sampled and 0.5 mL of fresh PBS was added to replace the sampling aliquot. Drug concentrations of the sampling aliquots at each time point were analyzed using high performance liquid chromatography (HPLC) to create the in vitro release profile.

Data set [2] is described as follows: PK study of liposomal rivastigmine in rats, subcutaneous injection. In kind it is in vivo, Sprague-Dawley rats. The method, then:
An in vivo PK evaluation of the liposomal rivastigmine formulation was performed using 7-8 weeks old female Sprague-Dawley rats. The rats were housed in a holding room which operated on a 12-hr light/12-hr dark circadian cycle with free access to water and food.
The rats were divided into two groups (n=3 in each group), one group received subcutaneous injection of 10 mg/kg of free rivastigmine tartrate, prepared by dissolving rivastigmine tartrate in ultrapure water with a final concentration of 2 mg/mL. The other group received subcutaneous injection of 10 mg/kg of liposomal rivastigmine tartrate, prepared according to Example 1. Blood samples were collected at 15 min, 1, 2, 4, 6, 8, 24, 48, and 72 hours post-injection. Plasma samples were obtained by centrifugation, kept frozen at −80° C. and analyzed using a noncompartmental analysis model in PKSolver (Comput Methods Programs Biomed. 2010; 99(3):306-314).

Data set [3] can be described thus: In vitro release, plasma free system (dialysis bag in PBS). Type of data set: physicochemical. The following applies: PBS pH 7.4, 37 °C, within 2 hours. On the procedure: as §1
The mark [4] stands for this setting: female, Sprague-Dawley, rat, plasma, sc, single subcutaneous injection 10 mg/kg.

As usually defined, the AUC(0-inf) is total exposure, with the tail of the curve extrapolated. A low value points to less exposure. The term AUC(0-t) denotes the area under the concentration-time curve up to a stated or last time point. What is called Cmax is the highest concentration seen after dosing. Regarding `CCN(C)C(=O)Oc1cccc([C@H](C)N(C)C)c1` [Free Rivastigmine, rivastigmine tartrate], the rivastigmine released in data set [1] amounted to 90%. In data set [2] (8 hours post injection, FIG. 2), the rivastigmine in plasma entry was “undetectable”. The “rivastigmine released as indicated by AUC0-t” value in data set [2] (72 hours post-injection) worked out at 100%. Moreover, in data set [2] (setting [4]), the AUC(0-inf) is 899 ng·h/mL, the AUC(0-t) amounted to 896 ng·h/mL and the concentration peaked (Cmax) at 427 ng/mL. Further, the half-life in data set [2] (female, Sprague-Dawley, rat, plasma, sc, single subcutaneous injection 10 mg/kg, read-out: t½ (converted)) was 55.8 min. Besides, the “rivastigmine released through the dialysis bag” value in data set [3] is listed as “one hundred”.
